Data published in the supplement of paper PMC13380429.

Legend:
Calu-3 [1] = assay: cell viability relative to DMSO; higher = less toxic; details: 72 h
Vero E6 [2] = assay: as above; details: 72 h
U2OS [3] = assay: as above; details: 72 h
Caco-2 [4] = assay: as above; details: 72 h
HepG2 [5] = assay: as above; details: 72 h
A549-ACE2 = assay: drug-induced phospholipidosis relative to tamoxifen; higher = more phospholipidosis
[6] = tested on: A549-ACE2 infected with SARS-CoV-2; assay: cell count relative to DMSO; higher = less toxic; details: 24 h
Calu-3 [7] = assay: drug sensitivity score (DSS) for viability; higher = more toxic; extreme values may be limits of the assay; details: 72 h
Vero E6 [8] = assay: as above; details: 72 h
U2OS [9] = assay: as above; details: 72 h
Caco-2 [10] = assay: as above; details: 72 h
HepG2 [11] = assay: as above; details: 72 h
Calu-3 [12] = assay: relative viability EC50 (midpoint between 100% and the lowest measured viability); higher = less toxic; details: 72 h
Vero E6 [13] = assay: as above; details: 72 h
U2OS [14] = assay: as above; details: 72 h
Caco-2 [15] = assay: as above; details: 72 h
HepG2 [16] = assay: as above; details: 72 h
[17] = tested on: A549-ACE2 infected with SARS-CoV-2; assay: SARS-CoV-2 infection rate relative to DMSO; higher = more infection; details: 24 h
[18] = tested on: A549-ACE2 infected with SARS-CoV-2; assay: morphology score (similarity to uninfected cells); higher = more like uninfected cells; details: 24 h

## C=C1C(=O)O[C@@H]2/C=C(\C)CC/C=C(\C)CC[C@@H]12 [costunolide]
Calu-3 [1]; 1 nM
  cell viability: 117%
Calu-3 [1]; 10 nM
  cell viability: 102%
Calu-3 [1]; 100 nM
  cell viability: 98.7%
Calu-3 [1]; 1000 nM
  cell viability: 94.5%
Calu-3 [1]; 10000 nM
  cell viability: 105%
Vero E6 [2]; 1 nM
  cell viability: 98.6%
Vero E6 [2]; 10 nM
  cell viability: 91.9%
Vero E6 [2]; 100 nM
  cell viability: 99.1%
Vero E6 [2]; 1000 nM
  cell viability: 97.8%
Vero E6 [2]; 10000 nM
  cell viability: 93.4%
U2OS [3]; 1 nM
  cell viability: 96.3%
U2OS [3]; 10 nM
  cell viability: 99.8%
U2OS [3]; 100 nM
  cell viability: 94.3%
U2OS [3]; 1000 nM
  cell viability: 96.8%
U2OS [3]; 10000 nM
  cell viability: 94.7%
Caco-2 [4]; 1 nM
  cell viability: 96.5%
Caco-2 [4]; 10 nM
  cell viability: 92.8%
Caco-2 [4]; 100 nM
  cell viability: 91.1%
Caco-2 [4]; 1000 nM
  cell viability: 86.6%
Caco-2 [4]; 10000 nM
  cell viability: 87.1%
HepG2 [5]; 1 nM
  cell viability: 99.7%
HepG2 [5]; 10 nM
  cell viability: 108%
HepG2 [5]; 100 nM
  cell viability: 92.9%
HepG2 [5]; 1000 nM
  cell viability: 97.3%
HepG2 [5]; 10000 nM
  cell viability: 91.5%
A549-ACE2; 0.3 µM, 24 h
  drug-induced phospholipidosis: 0.39%
A549-ACE2; 0.3 µM, 48 h
  drug-induced phospholipidosis: 2.36%
A549-ACE2; 0.3 µM, 72 h
  drug-induced phospholipidosis: 2.1%
A549-ACE2; 0.833333 µM, 24 h
  drug-induced phospholipidosis: -3.23%
A549-ACE2; 0.833333 µM, 48 h
  drug-induced phospholipidosis: -2.51%
A549-ACE2; 0.833333 µM, 72 h
  drug-induced phospholipidosis: -1.84%
A549-ACE2; 3.33333 µM, 24 h
  drug-induced phospholipidosis: 0.77%
A549-ACE2; 3.33333 µM, 48 h
  drug-induced phospholipidosis: 0.025%
A549-ACE2; 3.33333 µM, 72 h
  drug-induced phospholipidosis: -1.2%
A549-ACE2; 6.66667 µM, 24 h
  drug-induced phospholipidosis: 4.32%
A549-ACE2; 6.66667 µM, 48 h
  drug-induced phospholipidosis: 1.2%
A549-ACE2; 6.66667 µM, 72 h
  drug-induced phospholipidosis: -0.442%
A549-ACE2; 10 µM, 24 h
  drug-induced phospholipidosis: 10.4%
A549-ACE2; 10 µM, 48 h
  drug-induced phospholipidosis: 4.57%
A549-ACE2; 10 µM, 72 h
  drug-induced phospholipidosis: 1.25%
A549-ACE2; 30 µM, 24 h
  drug-induced phospholipidosis: 39.6%
A549-ACE2; 30 µM, 48 h
  drug-induced phospholipidosis: 14.4%
A549-ACE2; 30 µM, 72 h
  drug-induced phospholipidosis: 9.89%
[6]; 0.3 µM
  cell count: 104%
[6]; 3 µM
  cell count: 97%
[6]; 10 µM
  cell count: 99%
[6]; 30 µM
  cell count: 70%
Calu-3 [7]
  drug sensitivity score: 0
Vero E6 [8]
  drug sensitivity score: 0
U2OS [9]
  drug sensitivity score: 0
Caco-2 [10]
  drug sensitivity score: 0.9
HepG2 [11]
  drug sensitivity score: 0
Calu-3 [12]
  relative viability EC50: > 10 µM
Vero E6 [13]
  relative viability EC50: > 10 µM
U2OS [14]
  relative viability EC50: > 10 µM
Caco-2 [15]
  relative viability EC50: > 10 µM
HepG2 [16]
  relative viability EC50: > 10 µM
[17]; 0.3 µM
  SARS-CoV-2 infection rate: 103%
[17]; 3 µM
  SARS-CoV-2 infection rate: 104%
[17]; 10 µM
  SARS-CoV-2 infection rate: 106%
[17]; 30 µM
  SARS-CoV-2 infection rate: 66%
[18]; 0.3 µM
  morphology score: 0.19
[18]; 3 µM
  morphology score: -0.19
[18]; 10 µM
  morphology score: -0.21
[18]; 30 µM
  morphology score: 0.15
